Measured values taken from ChEMBL document CHEMBL4831516, “Development of Membrane-Active Honokiol/Magnolol Amphiphiles as Potent Antibacterial Agents against Methicillin-Resistant Staphylococcus aureus (MRSA)” (J Med Chem, 2021).
≈ marks a conversion by molar mass, not a printed value.

What was measured:
Staphylococcus aureus [1] = assay: Antibacterial activity against methicillin-resistant Staphylococcus aureus clinical isolate M-18 assessed as inhibition of visible growth incubated for 16 to 18 hrs by CLSI method; assay type: functional; settings: time 16-18 hrs, read-out: MIC100
Staphylococcus aureus [2] = assay: Antibacterial activity against methicillin-resistant Staphylococcus aureus clinical isolate M-20 assessed as inhibition of visible growth incubated for 16 to 18 hrs by CLSI method; assay type: functional; settings: time 16-18 hrs, read-out: MIC100
Salmonella enterica [3] = assay: Antibacterial activity against Salmonella enterica 8389 assessed as inhibition of visible growth incubated for 16 to 18 hrs by CLSI method; assay type: functional; settings: time 16-18 hrs, read-out: MIC100
Bacillus subtilis = assay: Antibacterial activity against Bacillus subtilis assessed as inhibition of visible growth incubated for 16 to 18 hrs by CLSI method; assay type: functional; settings: time 16-18 hrs, read-out: MIC100
Staphylococcus aureus [4] = assay: Antibacterial activity against methicillin-resistant Staphylococcus aureus clinical isolate M-17 assessed as inhibition of visible growth incubated for 16 to 18 hrs by CLSI method; assay type: functional; settings: time 16-18 hrs, read-out: MIC100
Salmonella enterica [5] = assay: Antibacterial activity against Salmonella enterica 349812 assessed as inhibition of visible growth incubated for 16 to 18 hrs by CLSI method; assay type: functional; settings: time 16-18 hrs, read-out: MIC100
Staphylococcus aureus [6] = assay: Antibacterial activity against Staphylococcus aureus ATCC29213 assessed as inhibition of visible growth incubated for 16 to 18 hrs by CLSI method; assay type: functional; settings: time 16-18 hrs, read-out: MIC100
Staphylococcus aureus [7] = assay: Antibacterial activity against methicillin-resistant Staphylococcus aureus clinical isolate M-12 assessed as inhibition of visible growth incubated for 16 to 18 hrs by CLSI method; assay type: functional; settings: time 16-18 hrs, read-out: MIC100
Staphylococcus aureus [8] = assay: Antibacterial activity against methicillin-resistant Staphylococcus aureus clinical isolate M-19 assessed as inhibition of visible growth incubated for 16 to 18 hrs by CLSI method; assay type: functional; settings: time 16-18 hrs, read-out: MIC100
Enterococcus faecalis = assay: Antibacterial activity against Enterococcus faecalis ATCC29212 assessed as inhibition of visible growth incubated for 16 to 18 hrs by CLSI method; assay type: functional; settings: time 16-18 hrs, read-out: MIC100
Micrococcus luteus = assay: Antibacterial activity against Micrococcus luteus assessed as inhibition of visible growth incubated for 16 to 18 hrs by CLSI method; assay type: functional; settings: time 16-18 hrs, read-out: MIC100
[9] = Selectivity index, HC50 for hemolytic activity in sheep RBC to MIC for antibacterial activity against Staphylococcus aureus ATCC29213; assay type: toxicity; settings: sheep red blood cells (erythrocytes), read-out: Selectivity Index
Staphylococcus aureus [10] = assay: Antibacterial activity against methicillin-resistant Staphylococcus aureus clinical isolate M-14 assessed as inhibition of visible growth incubated for 16 to 18 hrs by CLSI method; assay type: functional; settings: time 16-18 hrs, read-out: MIC100
Staphylococcus aureus [11] = assay: Antibacterial activity against methicillin-resistant Staphylococcus aureus clinical isolate M-16 assessed as inhibition of visible growth incubated for 16 to 18 hrs by CLSI method; assay type: functional; settings: time 16-18 hrs, read-out: MIC100
Staphylococcus aureus [12] = assay: Antibacterial activity against methicillin-resistant Staphylococcus aureus clinical isolate M-15 assessed as inhibition of visible growth incubated for 16 to 18 hrs by CLSI method; assay type: functional; settings: time 16-18 hrs, read-out: MIC100
Staphylococcus aureus [13] = assay: Antibacterial activity against methicillin-resistant Staphylococcus aureus clinical isolate M-11 assessed as inhibition of visible growth incubated for 16 to 18 hrs by CLSI method; assay type: functional; settings: time 16-18 hrs, read-out: MIC100
[14] = Hemolytic activity in sheep RBC assessed as hemolysis incubated for 1 hr; assay type: ADME, cell-based, Ovis aries, Erythrocyte; settings: sheep red blood cells (erythrocytes)
Escherichia coli = assay: Antibacterial activity against Escherichia coli ATCC25922 assessed as inhibition of visible growth incubated for 16 to 18 hrs by CLSI method; assay type: functional; settings: time 16-18 hrs, read-out: MIC100
[15] = test system: Stenotrophomonas maltophilia; assay: Antibacterial activity against Stenotrophomonas maltophilia assessed as inhibition of visible growth incubated for 16 to 18 hrs by CLSI method; assay type: functional; settings: time 16-18 hrs, read-out: MIC100
Staphylococcus aureus [16] = assay: Antibacterial activity against methicillin-resistant Staphylococcus aureus clinical isolate M-13 assessed as inhibition of visible growth incubated for 16 to 18 hrs by CLSI method; assay type: functional; settings: time 16-18 hrs, read-out: MIC100

Row | Compound | MIC (Staphylococcus aureus [1]) | MIC (Staphylococcus aureus [2]) | MIC (Salmonella enterica [3]) | MIC (Bacillus subtilis) | MIC (Staphylococcus aureus [4]) | MIC (Salmonella enterica [5]) | MIC (Staphylococcus aureus [6]) | MIC (Staphylococcus aureus [7]) | MIC (Staphylococcus aureus [8]) | MIC (Enterococcus faecalis) | MIC (Micrococcus luteus) | selectivity ratio [9] | MIC (Staphylococcus aureus [10]) | MIC (Staphylococcus aureus [11]) | MIC (Staphylococcus aureus [12]) | MIC (Staphylococcus aureus [13]) | HC50 at 1 h [14] | MIC (Escherichia coli) | MIC [15] | MIC (Staphylococcus aureus [16])
1 | C=CCc1ccc(OCC[N+](C)(C)CC(=O)NCCCCCC)c(-c2ccc(OCC[N+](C)(C)CC(=O)NCCCCCC)c(CC=C)c2)c1.[Br-].[Br-] | 8 mg/L | 4 mg/L | 32 mg/L | 4 mg/L | 4 mg/L | 32 mg/L | 8 mg/L | 8 mg/L | 8 mg/L | 4 mg/L | 8 mg/L | 117 | 8 mg/L | 16 mg/L | 8 mg/L | 8 mg/L | 934 µg/mL | 32 mg/L | 32 mg/L | 8 mg/L
2 | C=CCc1ccc(O)c(-c2cc(CC=C)ccc2O)c1 [MAGNOLOL] | – | – | > 128 mg/L | 16 mg/L (≈ 60.1 µM) | – | > 128 mg/L | 32 mg/L (≈ 120 µM) | – | – | 64 mg/L (≈ 240 µM) | 16 mg/L (≈ 60.1 µM) | – | – | – | – | – | 463 µg/mL | > 128 mg/L | > 128 mg/L | –
3 | C=CCc1ccc(O)c(-c2cc(CC=C)ccc2OCCCC[N+](C)(C)CC(=O)N(CCCC)CCCC)c1.[Br-] | 8 mg/L | 8 mg/L | 64 mg/L | 1 mg/L | 8 mg/L | 32 mg/L | 2 mg/L | 16 mg/L | 8 mg/L | 4 mg/L | 2 mg/L | 356 | 8 mg/L | 8 mg/L | 8 mg/L | 16 mg/L | 712 µg/mL | 8 mg/L | 32 mg/L | 8 mg/L
4 | CN[C@H](CC(C)C)C(=O)N[C@H]1C(=O)N[C@@H](CC(N)=O)C(=O)N[C@H]2C(=O)N[C@H]3C(=O)N[C@H](C(=O)N[C@H](C(=O)O)c4cc(O)cc(O)c4-c4cc3ccc4O)[C@H](O)c3ccc(c(Cl)c3)Oc3cc2cc(c3O[C@@H]2O[C@H](CO)[C@@H](O)[C@H](O)[C@H]2O[C@H]2C[C@](C)(N)[C@H](O)[C@H](C)O2)Oc2ccc(cc2Cl)[C@H]1O [VANCOMYCIN] | – | – | – | 0.25 mg/L (≈ 0.173 µM) | – | – | – | – | – | 2 mg/L (≈ 1.38 µM) | 0.5 mg/L (≈ 0.345 µM) | – | – | – | – | – | – | – | – | –
5 | C[C@H]1COc2c(N3CCN(C)CC3)c(F)cc3c(=O)c(C(=O)O)cn1c23.C[C@H]1COc2c(N3CCN(C)CC3)c(F)cc3c(=O)c(C(=O)O)cn1c23.O [LEVOFLOXACIN] | 0.5 mg/L | 1 mg/L | 0.25 mg/L | 0.5 mg/L | 5 mg/L | 0.25 mg/L | 0.5 mg/L | 1 mg/L | 1 mg/L | 0.25 mg/L | 0.25 mg/L | – | 1 mg/L | 1 mg/L | 1 mg/L | 1 mg/L | – | – | 0.5 mg/L | 5 mg/L
6 | C=CCc1ccc(O)c(-c2cc(CC=C)ccc2OCCC[N+](C)(C)CC(=O)NCCCCCC)c1.[Br-] | 2 mg/L | 2 mg/L | 16 mg/L | 0.5 mg/L | 2 mg/L | 16 mg/L | 2 mg/L | 2 mg/L | 2 mg/L | 2 mg/L | 0.5 mg/L | 372 | 2 mg/L | 2 mg/L | 2 mg/L | 4 mg/L | 743 µg/mL | 8 mg/L | 16 mg/L | 4 mg/L
7 | CN(C)c1cc(NC(=O)CNC(C)(C)C)c(O)c2c1C[C@H]1C[C@H]3[C@H](N(C)C)C(O)=C(C(N)=O)C(=O)[C@@]3(O)C(O)=C1C2=O [TIGECYCLINE] | 0.25 mg/L (≈ 0.427 µM) | 0.5 mg/L (≈ 0.854 µM) | – | – | 0.5 mg/L (≈ 0.854 µM) | – | – | 1 mg/L (≈ 1.71 µM) | 0.5 mg/L (≈ 0.854 µM) | – | – | – | 1 mg/L (≈ 1.71 µM) | 0.25 mg/L (≈ 0.427 µM) | 0.5 mg/L (≈ 0.854 µM) | 0.5 mg/L (≈ 0.854 µM) | – | – | – | 1 mg/L (≈ 1.71 µM)
8 | C=CCc1ccc(O)c(-c2ccc(O)c(CC=C)c2)c1 [HONOKIOL] | – | – | > 128 mg/L | 32 mg/L (≈ 120 µM) | – | > 128 mg/L | 64 mg/L (≈ 240 µM) | – | – | 64 mg/L (≈ 240 µM) | 32 mg/L (≈ 120 µM) | – | – | – | – | – | 534 µg/mL | > 128 mg/L | > 128 mg/L | –
